{
  "source": "patent US7375058B2",
  "about": "“Herbicidal mixtures based on 3-phenyluracils” (priority 2002, dated 2008)",
  "key": {"[1]": {"test_system": "AMARE", "test": "Greenhouse post-emergence herbicidal action against AMARE", "assay_type": "in vivo, Amaranthus retroflexus", "source_text": "(§1) For the post-emergence treatment, the test plants were first grown to a height of 3 to 20 cm, depending on the plant habit, and only then treated. Here, the herbicidal compositions were suspended or emulsified in water as distribution medium and sprayed using finely distributing nozzles\n(§2) The respective components A and B and/or C were formulated as 10% by weight strength emulsion concentrate and introduced to the spray liquor with the amount of solvent system used for applying the active compound. In the examples, the solvent used was water.\n(§3) The test period extended over 21 days. During this time, the plants were tended, and their response to the treatments with active compound was evaluated.\n(§4) The evaluation for the damage caused by the chemical compositions was carried out using a scale from 0 to 100%, compared to the untreated control plants. Here, 0 means no damage and 100 means complete destruction of the plants.\n(§5) In the examples below, the value E which is to be expected if the activity of the individual compounds is just additive was calculated using the method of S. R. Colby (1967) “Calculating synergistic and antagonistic responses of herbicide combinations”, Weeds 15, p. 22 ff. E=X+Y−([…]) where • X=effect in percent using active compound A at an application rate a; • Y=effect in percent using active compound B at an application rate b; • E=expected effect (in %) of A+B at application rates a+b.\n(§6) If the observed effect is higher than the value E calculated according to Colby, a synergistic effect is present."}, "[2]": {"test_system": "BIDPI", "test": "Greenhouse post-emergence herbicidal action against BIDPI", "assay_type": "in vivo, Bidens pilosa", "source_text": "as §1, §2, §3, §4, §5, §6"}, "[3]": {"test_system": "COMBE", "test": "Greenhouse post-emergence herbicidal action against COMBE", "assay_type": "in vivo, Commelina benghalensis", "source_text": "as §1, §2, §3, §4, §5, §6"}, "[4]": {"test_system": "POLPE", "test": "Greenhouse post-emergence herbicidal action against POLPE", "assay_type": "in vivo, Polygonum persicaria", "conditions": "21 days", "source_text": "as §1, §2, §3, §4, §5, §6"}, "[5]": {"test_system": "SETFA", "test": "Greenhouse post-emergence herbicidal action against SETFA", "assay_type": "in vivo, Setaria faberii", "source_text": "as §1, §2, §3, §4, §5, §6"}, "[6]": {"test_system": "ABUTH", "test": "Greenhouse post-emergence herbicidal action against ABUTH", "assay_type": "in vivo, Abutilon theophrasti", "source_text": "as §1, §2, §3, §4, §5, §6"}, "[7]": {"test_system": "ECHCG", "test": "Greenhouse post-emergence herbicidal action against ECHCG", "assay_type": "in vivo, Echinochloa crus-galli", "source_text": "as §1, §2, §3, §4, §5, §6"}, "[8]": {"test_system": "ALOMY", "test": "Greenhouse post-emergence herbicidal action against ALOMY", "assay_type": "in vivo, Alopecurus myosuroides", "conditions": "21 days", "source_text": "as §1, §2, §3, §4, §5, §6"}, "[9]": {"test_system": "BRAPL", "test": "Greenhouse post-emergence herbicidal action against BRAPL", "assay_type": "in vivo, Brachiaria plantaginea", "source_text": "as §1, §2, §3, §4, §5, §6"}, "[10]": {"test_system": "GALAP", "test": "Greenhouse post-emergence herbicidal action against GALAP", "assay_type": "in vivo, Galium aparine", "source_text": "as §1, §2, §3, §4, §5, §6"}, "[11]": {"conditions": "I.1 0.49 g/ha and/or b14.1 7.81 g/ha"}, "[12]": {"conditions": "I.1 0.98 g/ha and/or b14.1 15.63 g/ha"}, "[13]": {"conditions": "I.14 0.49 g/ha and/or b10.3 62.5 g/ha"}, "[14]": {"conditions": "I.14 0.49 g/ha and/or b10.3 + c.2 62.5 + 3.13 g/ha"}, "[15]": {"conditions": "I.14 0.49 g/ha and/or b11.1 62.5 g/ha"}, "[16]": {"conditions": "I.14 0.98 g/ha and/or b10.3 125 g/ha"}, "[17]": {"conditions": "I.14 0.98 g/ha and/or b10.3 + c.2 125 + 6.25 g/ha"}, "[18]": {"conditions": "I.14 0.98 g/ha and/or b11.1 125 g/ha"}, "[19]": {"conditions": "I.14 0.49 g/ha and/or b13.3 62.5 g/ha"}, "[20]": {"conditions": "I.14 0.98 g/ha and/or b13.3 125 g/ha"}},
  "note": "Where a name gives a salt, the structure may show the parent alone.",
  "data": [
    {"smiles": "C/C(=N\\NC(=O)Nc1cc(F)cc(F)c1)c1ncccc1C(=O)O", "note": "[b14.1, diflufenzopyr sodium salt, reference compound]", "values": [
      {"measurement": "Herbicidal action against AMARE found", "setting": "[1]; [11]", "value": 0, "unit": "%"},
      {"measurement": "Herbicidal action against AMARE found", "setting": "[1]; [12]", "value": 0, "unit": "%"},
      {"measurement": "Herbicidal action against BIDPI found", "setting": "[2]; [11]", "value": 20, "unit": "%"},
      {"measurement": "Herbicidal action against BIDPI found", "setting": "[2]; [12]", "value": 30, "unit": "%"}
    ]},
    {"smiles": "CNC.C[C@@H](Oc1ccc(Cl)cc1Cl)C(=O)O", "note": "[b13.1, dichlorprop-P dimethylammonium salt, reference compound]", "values": [
      {"measurement": "Herbicidal action against COMBE found", "setting": "[3]; 21 days, application rate g/ha: I.7 1.95, b13.1 500", "value": 40, "unit": "%"},
      {"measurement": "Herbicidal action against COMBE found", "setting": "[3]; 21 days, application rate g/ha: I.7 3.91, b13.1 1000", "value": 75, "unit": "%"},
      {"measurement": "Herbicidal action against POLPE found", "setting": "[4]; application rate g/ha: I.7 1.95, b13.1 500", "value": 30, "unit": "%"},
      {"measurement": "Herbicidal action against POLPE found", "setting": "[4]; application rate g/ha: I.7 3.91, b13.1 1000", "value": 30, "unit": "%"}
    ]},
    {"smiles": "CC(C)CN(C)S(=O)(=O)NC(=O)c1cc(-n2c(=O)cc(C(F)(F)F)n(N)c2=O)c(F)cc1Cl", "note": "[I.14]", "values": [
      {"measurement": "Herbicidal action against SETFA found", "setting": "[5]; [13]", "value": 20, "unit": "%"},
      {"measurement": "Herbicidal action against SETFA found", "setting": "[5]; [14]", "value": 20, "unit": "%"},
      {"measurement": "Herbicidal action against SETFA found", "setting": "[5]; [15]", "value": 20, "unit": "%"},
      {"measurement": "Herbicidal action against SETFA found", "setting": "[5]; [16]", "value": 25, "unit": "%"},
      {"measurement": "Herbicidal action against SETFA found", "setting": "[5]; [17]", "value": 25, "unit": "%"},
      {"measurement": "Herbicidal action against SETFA found", "setting": "[5]; [18]", "value": 25, "unit": "%"},
      {"measurement": "Herbicidal action against COMBE found", "setting": "[3]; I.14 1.95 g/ha and/or b.15.1 125 g/ha", "value": 0, "unit": "%"},
      {"measurement": "Herbicidal action against COMBE found", "setting": "[3]; I.14 3.91 g/ha and/or b.15.1 250 g/ha", "value": 40, "unit": "%"},
      {"measurement": "Herbicidal action against ABUTH found", "setting": "[6]; [19]", "value": 0, "unit": "%"},
      {"measurement": "Herbicidal action against ABUTH found", "setting": "[6]; [20]", "value": 20, "unit": "%"},
      {"measurement": "Herbicidal action against BIDPI found", "setting": "[2]; 21 days, application rate g/ha: I.14 1.95, b10.2 250", "value": 40, "unit": "%"},
      {"measurement": "Herbicidal action against BIDPI found", "setting": "[2]; 21 days, application rate g/ha: I.14 3.91, b10.2 500", "value": 85, "unit": "%"},
      {"measurement": "Herbicidal action against ECHCG found", "setting": "[7]; I.14 1.95 g/ha and/or b13.2 125 g/ha", "value": 40, "unit": "%"},
      {"measurement": "Herbicidal action against ECHCG found", "setting": "[7]; I.14 3.91 g/ha and/or b13.2 250 g/ha", "value": 70, "unit": "%"},
      {"measurement": "Herbicidal action against ALOMY found", "setting": "[8]; application rate g/ha: I.14 0.49, b2.3 0.98", "value": 0, "unit": "%"},
      {"measurement": "Herbicidal action against ALOMY found", "setting": "[8]; application rate g/ha: I.14 0.98, b2.3 1.95", "value": 0, "unit": "%"},
      {"measurement": "Herbicidal action against BRAPL found", "setting": "[9]; 21 days, application rate g/ha: I.14 0.49, b2.3 0.98", "value": 0, "unit": "%"},
      {"measurement": "Herbicidal action against BRAPL found", "setting": "[9]; 21 days, application rate g/ha: I.14 0.98, b2.3 1.95", "value": 0, "unit": "%"},
      {"measurement": "Herbicidal action against BRAPL found", "setting": "[9]; [19]", "value": 10, "unit": "%"},
      {"measurement": "Herbicidal action against BRAPL found", "setting": "[9]; [20]", "value": 15, "unit": "%"},
      {"measurement": "Herbicidal action against GALAP found", "setting": "[10]; [13]", "value": 0, "unit": "%"},
      {"measurement": "Herbicidal action against GALAP found", "setting": "[10]; [14]", "value": 0, "unit": "%"},
      {"measurement": "Herbicidal action against GALAP found", "setting": "[10]; [15]", "value": 0, "unit": "%"},
      {"measurement": "Herbicidal action against GALAP found", "setting": "[10]; [16]", "value": 25, "unit": "%"},
      {"measurement": "Herbicidal action against GALAP found", "setting": "[10]; [17]", "value": 25, "unit": "%"},
      {"measurement": "Herbicidal action against GALAP found", "setting": "[10]; [18]", "value": 25, "unit": "%"}
    ]}
  ]
}
